Values of other authors in patent US10052295B2, “Method, composition and package for bowel cleansing” (priority 2011, dated 2018).

watery feces (doses over 35 grams, compared with erythritol (Storey 2006)) | Compound | GI symptoms (doses as high as 50 mg (Storey 2006)) | toxic effects in humans (doses as high as 50 grams per day for over two years (Makinen 1976))
– | OC[C@@H](O)[C@@H](O)CO [erythritol] | not reported to produce any significant GI symptoms | –
significantly more watery feces | OC[C@@H](O)[C@H](O)[C@@H](O)CO [xylitol] | – | no toxic effects
